Laboratory results published in article PMC7248905, “Development of UHPLC-MS/MS Method for Indirubin-3′-Oxime Derivative as a Novel FLT3 Inhibitor and Pharmacokinetic Study in Rats” (Molecules, 2020).
Where two headings read alike, the source gives them in different places.

Experiments:
MV4-11 cells = system: MV4-11 cells; parameters: method as in PMID 32272419; conditions: AML line of MV4-11 cells, previous studies; cited from earlier work
MV4-11 xenograft = system: MV4-11 xenograft; parameters: method as in PMID 32272419; conditions: MV4-11 xenograft animal model, previous studies; cited from earlier work
[1] = Pharmacokinetic study in rats after intravenous and oral administration; assay type: in vivo, Sprague Dawley rats; parameters: AUC/Dose: unit not given here; conditions: rat; for AUC(0-t) / clearance / MRT / half-life / Vd / Cmax / bioavailability: male, Sprague Dawley, plasma; for clearance: read-out: CL (time averaged total body clearance); for MRT: read-out: MRT (mean residence time) (converted); for Vd: read-out: Vd,ss (apparent volume of distribution at steady state); for Cmax: read-out: Cmax (maximum plasma concentration)
From the text: The validated LC-MS/MS method was successfully implemented to quantify LDD-2614 in Sprague Dawley rat plasma to perform a pharmacokinetic study on LDD-2614 in rats after oral and intravenous administration.
Male Sprague Dawley rats (7–8 weeks, 230–250 g) were supplied from Samtaco (Osan, Korea) and were housed in cages before the experiments. All animal experiments were approved by the Dankook University’s Institutional Animal Care and Use Committee (approval no. DKU-19-029). All rats were kept in a light-controlled room maintained at a temperature of 23 ± 2 °C with 12 h light and dark cycles and a relative humidity of 50% ± 10%. The rats were given ad libitum access to standard food and water and acclimated to the environment for 7 days prior to the experiment.
The rats were fasted for at least 12 h prior to the start of the experiments and freely supplied water. On the morning of the test, the rats were anaesthetized with a mixture of alfaxan and rompun (75:25, v/v). For oral administration studies, the carotid artery was cannulated using a polyethylene tube (PE 60, 0.76 mm i.d., 1.22 mm o.d., Becton Dickinson, Franklin Lakes, NJ, USA) for efficient blood sampling. For intravenous administration studies, the carotid artery and jugular veins were cannulated for blood sampling and drug administration, respectively. Each cannula was exteriorized to the dorsal side of the neck. Then, each rat was individually housed in a rat metabolism cage and allowed to move freely. A recovery time of 3–4 h from anesthesia was allowed before drug administration. The rats were randomly divided into six groups as follows: the first three groups were orally administered LDD-2614 (4 mL/kg dissolved in distilled water) using a gastric gavage tube at doses of 1, 5, and 20 mg/kg, and the remaining three groups were intravenously injected over 1 min with LDD-2614 (4 mL/kg dissolved in distilled water) at doses of 1, 5, and 20 mg/kg. Samples of approximately 0.2 mL of blood were immediately collected via the carotid artery at 0 (before administration), 5, 15, 30, 60, 90, 120, 180, 240, 360, 480, and 1440 min after oral and intravenous administration. For intravenous administration, a sampling time of 1 min after administration was also added, and the remaining times were the same. The blood samples were immediately centrifuged at 12,000 rpm for 5 min. Each plasma sample was transferred into a new microtube and stored at −80 °C until used for LC–MS/MS analysis.
All data are expressed as mean ± standard deviation. The pharmacokinetic parameters were calculated using Phoenix WinNonlin 2.1 (Pharmasight, Mountain View, CA, USA). A noncompartmental model was used.

FLT3 = system: FLT3; parameters: method as in PMID 32272419; conditions: in vitro assays, previous studies; cited from earlier work
[2] = Stability of LDD-2614 in rat plasma (freeze-thaw, long-term, short-term, autosampler); assay type: in vitro ADME; conditions: for Measured Concentration: n = 5
Protocol: Stability studies using three QC samples for freeze-thaw stability (three freeze-thaw cycles lasting 12 h each), long-term stability (sample stored at −80 °C and analyzed after 2 weeks), short-term temperature stability (samples kept at room temperature for 6 h), and post-preparation stability (12 h in autosampler) were evaluated. The measurements of the analytes were compared with those from newly prepared QC samples at the same concentrations. The accuracy (RE) of all analytes ranged from −0.6% to 8.6% for the three freeze-thaw cycles, −5.5% to −2.6% for long-term stability, −3.6% to −0.1% for short-term stability, and −1.5% to 1.5% for post-preparation stability.
Stability was evaluated with rat plasma at the four QC concentrations. Three freeze (−80 °C) and thaw (room temperature, 25 °C and stand for 2 h) cycles, long-term stability (−80 °C for 2 weeks), short-term stability (room temperature for 6 h), and post-extraction stability (12 h in the autosampler at 4 °C) were tested. The concentrations of the prepared stability samples were compared to the QC samples prepared on the day of analysis. The stability samples were considered stable if recovered within 15% compared to the QC sample concentration.

[3] = extracted rat plasma, autosampler 4 °C 12 h, nominal 0.3 ng/mL
[4] = extracted rat plasma, autosampler 4 °C 12 h, nominal 150 ng/mL
[5] = extracted rat plasma, autosampler 4 °C 12 h, nominal 400 ng/mL
[6] = rat plasma, long-term −80 °C 2 weeks, nominal 0.3 ng/mL
[7] = rat plasma, long-term −80 °C 2 weeks, nominal 150 ng/mL
[8] = rat plasma, long-term −80 °C 2 weeks, nominal 400 ng/mL
[9] = rat plasma, short-term room temp 6 h, nominal 0.3 ng/mL
[10] = rat plasma, short-term room temp 6 h, nominal 150 ng/mL
[11] = rat plasma, short-term room temp 6 h, nominal 400 ng/mL
[12] = rat plasma, three freeze-thaw cycles, nominal 0.3 ng/mL
[13] = rat plasma, three freeze-thaw cycles, nominal 150 ng/mL
[14] = rat plasma, three freeze-thaw cycles, nominal 400 ng/mL

AUC(0-t) ([1]; intravenous, 1 mg/kg, n = 7, mean ± SD): 635 ng·h/mL
clearance ([1]; intravenous, 1 mg/kg): 30.7 ± 13.6 mL/min/kg
MRT ([1]; intravenous, 1 mg/kg): 4.53 h
half-life ([1]; intravenous, 1 mg/kg, read-out: T1/2 (terminal half-life)): 294 ± 32.5 min
Vd ([1]; intravenous, 1 mg/kg): 9.62 ± 3.38 L/kg
AUC(0-t) ([1]; intravenous, 5 mg/kg, n = 5, mean ± SD): 3510 ng·h/mL
clearance ([1]; intravenous, 5 mg/kg): 20.8 ± 8.4 mL/min/kg
MRT ([1]; intravenous, 5 mg/kg): 4.76 h
half-life ([1]; intravenous, 5 mg/kg, read-out: T1/2 (terminal half-life)): 199 ± 34.5 min
Vd ([1]; intravenous, 5 mg/kg): 6.42 ± 2.44 L/kg
AUC(0-t) ([1]; intravenous, 20 mg/kg, n = 6, mean ± SD): 14400 ng·h/mL
clearance ([1]; intravenous, 20 mg/kg): 23.2 ± 3.7 mL/min/kg
MRT ([1]; intravenous, 20 mg/kg): 5.88 h
half-life ([1]; intravenous, 20 mg/kg, read-out: T1/2 (terminal half-life)): 202 ± 46.7 min
Vd ([1]; intravenous, 20 mg/kg): 8.67 ± 2.08 L/kg
half-life ([1]; intravenous, dose range 1–20 mg/kg, terminal phase, read-out: half-life (T1/2)): 180 to 240 min
AUC(0-t) ([1]; oral, 1 mg/kg, n = 6, mean ± SD): 73.8 ng·h/mL
Cmax ([1]; oral, 1 mg/kg): 5.96 ± 1.77 ng/mL
bioavailability ([1]; oral, 1 mg/kg, read-out: F (bioavailability)): 11.7%
AUC(0-t) ([1]; oral, 5 mg/kg, n = 6, mean ± SD): 390 ng·h/mL
Cmax ([1]; oral, 5 mg/kg): 43.7 ± 8.2 ng/mL
bioavailability ([1]; oral, 5 mg/kg, read-out: F (bioavailability)): 11.1%
AUC(0-t) ([1]; oral, 20 mg/kg, n = 5, mean ± SD): 1020 ng·h/mL
Cmax ([1]; oral, 20 mg/kg): 120 ± 33.4 ng/mL
bioavailability ([1]; oral, 20 mg/kg, read-out: F (bioavailability)): 7.1%
bioavailability ([1]; oral, doses 1–20 mg/kg, compared with intravenous AUClast, read-out: bioavailability after oral administration): 7.1 to 11.7%
AUC/Dose ([1]; intravenous, 1 mg/kg): 38.1 ± 18.5
AUC/Dose ([1]; intravenous, 5 mg/kg): 42.1 ± 12.9
AUC/Dose ([1]; intravenous, 20 mg/kg): 43.2 ± 7.5
AUC/Dose ([1]; oral, 1 mg/kg): 4.43 ± 0.39
AUC/Dose ([1]; oral, 5 mg/kg): 4.69 ± 3.05
AUC/Dose ([1]; oral, 20 mg/kg): 3.05 ± 1.24
increase in AUC ([1]; oral, 20 mg/kg versus 5 mg/kg (four-fold increase in dose)): approximately 2.5 fold
Accuracy (RE) [2, 3]: −1.1%
Measured Concentration [2, 3]: 0.30 ± 0.03 ng/mL
Accuracy (RE) [2, 4]: −1.5%
Measured Concentration [2, 4]: 147.8 ± 2.98 ng/mL
Accuracy (RE) [2, 5]: 1.5%
Measured Concentration [2, 5]: 410.2 ± 24.3 ng/mL
degradation under the different storage and analysis conditions ([2]; rat plasma, freeze-thaw, long-term, short-term, post-preparation): no significant degradation observed
Accuracy (RE) [2, 6]: −4.8%
Measured Concentration [2, 6]: 0.29 ± 0.02 ng/mL
Accuracy (RE) [2, 7]: −2.6%
Measured Concentration [2, 7]: 146.1 ± 0.65 ng/mL
Accuracy (RE) [2, 8]: –5.5%
Measured Concentration [2, 8]: 378.1 ± 17.7 ng/mL
Accuracy (RE) [2, 9]: −0.1%
Measured Concentration [2, 9]: 0.30 ± 0.03 ng/mL
Accuracy (RE) [2, 10]: −3.6%
Measured Concentration [2, 10]: 144.6 ± 6.46 ng/mL
Accuracy (RE) [2, 11]: −1.2%
Measured Concentration [2, 11]: 395.1 ± 13.0 ng/mL
Accuracy (RE) [2, 12]: 8.6%
Measured Concentration [2, 12]: 0.33 ± 0.02 ng/mL
Accuracy (RE) [2, 13]: −0.6%
Measured Concentration [2, 13]: 149.1 ± 1.31 ng/mL
Accuracy (RE) [2, 14]: −0.3%
Measured Concentration [2, 14]: 398.9 ± 6.04 ng/mL
Compound: O=C1Nc2ccc(F)cc2C1=C1Nc2ccc(F)cc2C1=NOCCN1CCNCC1 [LDD-2614]
anti-proliferative activity (MV4-11 cells): anti-proliferative activity
in vivo antitumor activity (MV4-11 xenograft): significant in vivo antitumor activity
dose linearity of pharmacokinetics ([1]; intravenous, dose range 1–20 mg/kg): linear pharmacokinetic characteristics were observed
FLT3 inhibition (FLT3): FLT3 inhibition
